This note sets out measurements from patent US5659012A, “Peptide which binds SH2 domains of protein tyrosine phosphatase SH-PTP1” (Whitehead Institute for Biomedical Research, priority 1995, dated 1997).

Test [1] deals with 32D cells expressing the EPO-R mutant Y429,431F. The test is described as follows: Proliferation assay (3H-Thymidine incorporation), EPO-dependent proliferation. The format is cell-based. The protocol:
(§1) FIG. 2 is a graphic illustration of EPO-dependent proliferation of 32D cells expressing the wt EPO-R and the EPO-R mutant Y429, 431F. […] Each data point represents the mean of triplicate determinations±standard deviation.
(§2) To assess the role of SH-PTP1 in regulating proliferative signals generated by the EPO-R, the proliferation of 32D cells expressing wt EPO-R or EPO-R Y429,431F was measured. […] When grown in EPO, the half-maximal proliferation of pools of 32D cells expressing the wt EPO-R required 0.25 units EPO/ml and maximal proliferation required about 1 units/ml (FIG. 2). […] Pools of 32D cells expressing the mutant EPO-R Y429,431F achieved half-maximal proliferation in as little as 0.025 units EPO/ml, reaching a maximum rate at 0.1 units/ml (FIG. 2). At the highest EPO concentrations employed, the rate of proliferation of cell pools expressing the wt EPO-R or the EPO-R mutant Y429,431F was the same.
(§3) Proliferation assays were performed in 96 well plates with 200 μl/well. 5×10^4 32D cells/ml were seeded in the presence of indicated amounts of cytokines (EPO O--5 units/ml; IL3 0-100 units/ml). After 48 hours, 1 μCi 3H-Thymidine (DuPont NEN)/well was added for another 3 hours. The labeled cells were then harvested by a 96 well plate harvester (Scantron Instruments Inc.) and the amount of radioactively labeled DNA was quantitated in a scintillation counter.

Test [2] relates to 32D cells expressing the wt EPO-R. Described as above. It counts as cell-based. The following applies: pools of 32D cells expressing wt EPO-R. The procedure: as §1, §2, §3
[3] abbreviates: pools of 32D cells expressing mutant EPO-R Y429,431F.

Consider Erythropoietin [EPO], for which the “amount of EPO allowing proliferation relative to the normal amount” value in test [1] (mutant EPO-R unable to bind SH-PTP1 versus wt EPO-R) is listed as “one-fifth to one-tenth”. In addition, in test [1] (setting [3]), the “EPO giving half-maximal proliferation” value turned out to be 0.025 units EPO/ml and the “EPO giving maximum rate of proliferation” value was 0.1 units/ml. Further, in test [2], the “EPO required for maximal proliferation” value is on record as “about 1 units/ml”. For the same substance, the “EPO required for half-maximal proliferation” value in test [2] (48 h + 3 h 3H-Thymidine) was found to be 0.25 units EPO/ml.
